Each compound was assayed on Monocyte (assay: Inhibition of procoagulant activity in monocyte from human blood assessed as counteraction of IL1-induced tissue factor expression at 10 uM after 18 hrs measured as microunits of tissue factor/10^5 cells).
Type: functional

SMILES | Activity
O=C1c2c(O)cc(O)cc2O[C@H](c2ccc(O)c(O)c2)[C@H]1O [(+)-TAXIFOLIN] | 41
O=C1c2ccc(O)cc2O[C@@H](c2cc(O)c(O)c(O)c2)[C@@H]1O [DIHYDROROBINETIN] | 0
O=C1C[C@@H](c2ccc(O)cc2)Oc2cc(O)cc(O)c21 [NARINGENIN] | 0
O=c1c(O)c(-c2ccc(O)c(O)c2)oc2cc(O)cc(O)c12 [QUERCETIN] | 0
O=c1c(O)c(-c2cc(O)c(O)c(O)c2)oc2cc(O)ccc12 [ROBINETIN] | 38.5
O=c1c(-c2ccc(O)cc2)coc2cc(O)ccc12 [DAIDZEIN] | 0
COc1cc(O)c2c(=O)c(O)c(-c3ccc(O)c(O)c3)oc2c1 [RHAMNETIN] | 0
O=c1cc(-c2ccc(O)c(O)c2)oc2cc(O)cc(O)c12 [LUTEOLIN] | 10.6
O=c1c(O[C@@H]2O[C@@H](CO)[C@H](O)[C@H]2O)c(-c2ccc(O)c(O)c2)oc2cc(O)cc(O)c12 [AVICULARIN] | 0
O=c1c(-c2ccc3c(c2)OCO3)coc2cc(O)ccc12 [PSEUDOBAPTOGENIN] | 0
COc1cc(O)c2c(=O)cc(-c3ccccc3)oc2c1 [TECHTOCHRYSIN] | 39
O=c1c(O)c(-c2cc(O)c(O)c(O)c2)oc2cc(O)cc(O)c12 [MYRICETIN] | 1.2
COc1ccc([C@@H]2CC(=O)c3c(O)cc(O[C@@H]4O[C@H](CO)[C@@H](O)[C@H](O)[C@H]4O[C@@H]4O[C@@H](C)[C@H](O)[C@@H](O)[C@H]4O)cc3O2)cc1O [NEOHESPERIDIN] | 0
COc1cc([C@@H]2CC(=O)c3c(O)cc(O)cc3O2)ccc1O [HOMOERIODICTYOL] | 0
COc1cc(-c2cc(=O)c3c(O)cc(O)cc3o2)cc(OC)c1OC | 0
O=c1cc(-c2ccccc2)oc2cc(O)c(O)c(O)c12 [BAICALEIN] | 55.2
COc1cc(-c2cc(=O)c3c(O)c(OC)c(OC)cc3o2)cc(OC)c1OC [GRADENIN A] | 0
CC(=O)OC[C@H]1O[C@@H](Oc2c(-c3ccc(O)c(O)c3)oc3cc(O)cc(O)c3c2=O)[C@H](O)[C@@H](O)[C@@H]1O | 12.4
COc1ccc(-c2cc(=O)c3c(O)cc(O)c(-c4cc(-c5cc(=O)c6c(O)cc(OC)cc6o5)ccc4OC)c3o2)cc1 [SCIADOPITISIN] | 0
C[C@H]1O[C@@H](Oc2c(-c3cc(O)c(O)c(O)c3)oc3cc(O)cc(O)c3c2=O)[C@@H](O)[C@@H](O)[C@@H]1O [MYRICITRIN] | 37.7

SMILES | Activity
COc1ccc(-c2cc(=O)c3c(O)cc(O)cc3o2)cc1 [ACACETIN] | 26
O=c1c(O)c(-c2ccc(O)cc2O)oc2cc(O)cc(O)c12 [MORIN] | 0
C[C@@H]1O[C@@H](OC[C@H]2O[C@@H](Oc3cc(O)c4c(c3)O[C@H](c3ccc(O)cc3)CC4=O)[C@H](O)[C@@H](O)[C@@H]2O)[C@H](O)[C@H](O)[C@H]1O [NARIRUTIN] | 0
O=c1cc(-c2ccccc2)oc2ccccc12 [FLAVONE] | 6.8
C[C@@H]1O[C@@H](OC[C@H]2O[C@@H](Oc3c(-c4ccccc4O)oc4cc(O)cc(O)c4c3=O)[C@H](O)[C@@H](O)[C@@H]2O)[C@H](O)[C@H](O)[C@H]1O | 28.4
O=c1c(O)c(-c2ccccc2)oc2cc(O)cc(O)c12 [GALANGIN] | 0
COc1c(-c2ccccc2)oc2c(ccc3occc32)c1=O [KARANJIN] | 0
O=c1c(O)c(-c2ccc(O)c(O)c2)oc2cc(O)c(O)c(O)c12 [QUERCETAGETIN] | 0
COc1ccc(-c2cc(=O)c3ccccc3o2)cc1 [4'-METHOXYFLAVONE] | 0
O=c1c(O[C@@H]2O[C@H](CO)[C@@H](O)[C@H](O)[C@H]2O)c(-c2ccc(O)cc2)oc2cc(O)cc(O)c12 [ASTRAGALIN] | 0
C[C@@H]1O[C@@H](OC[C@H]2O[C@@H](Oc3c(-c4ccc(O)c(O)c4)oc4cc(O)cc(O)c4c3=O)[C@H](O)[C@@H](O)[C@@H]2O)[C@H](O)[C@H](O)[C@H]1O [RUTIN] | 9.1
COc1ccc(-c2cc(=O)c3c(O)c(OC)c(OC)cc3o2)cc1O [EUPATORIN] | 0
O=c1cc(-c2ccc(Oc3c(O)cc4oc(-c5ccc(O)cc5)cc(=O)c4c3O)cc2)oc2cc(O)cc(O)c12 [HINOKIFLAVONE] | 0
COc1ccc(-c2cc(=O)c3c(OC)c(OC)c(OC)c(OC)c3o2)cc1 [TANGERETIN] | 0
COc1cc(C2Oc3cc([C@H]4Oc5cc(O)cc(O)c5C(=O)[C@@H]4O)ccc3OC2CO)ccc1O (stereo partly specified) [SILIBININ] | 0
CCCC(=O)Oc1c(OC)cc(O)c2c(=O)c(O)c(-c3ccccc3)oc12 | 0
O=c1c(-c2ccc(O)cc2)coc2cc(O[C@@H]3O[C@H](CO)[C@@H](O)[C@H](O)[C@H]3O)ccc12 [DAIDZIN] | 0
O=C1c2ccc(O)cc2O[C@H](c2ccc(O)c(O)c2)[C@H]1O [FUSTIN] | 0
O=c1c(O)c(-c2ccccc2O)oc2cc(O)cc(O)c12 [DATISCETIN] | 28.4
COc1ccc(-c2cc(=O)c3c(OC)c(OC)c(OC)cc3o2)cc1O | 0

These compounds were tested on Monocyte (assay: Inhibition of procoagulant activity in monocyte from human blood assessed as counteraction of IL1-induced tissue factor expression after 18 hrs).
Type: functional, cell-based

SMILES | IC50 [nM]
COc1ccc([C@@H]2CC(=O)c3c(O)cc(O)cc3O2)cc1O [HESPERETIN] | 2100
O=c1c(O)c(-c2ccc(O)cc2)oc2cc(O)cc(O)c12 [KAEMPFEROL] | 2700
COc1ccc(-c2cc(=O)c3c(O)cc(O)cc3o2)cc1O [DIOSMETIN] | 3000
O=c1cc(-c2ccc(O)c(O)c2)oc2cc(O)cc(O)c12 [LUTEOLIN] | 1500
COc1ccc(-c2oc3cc(O)cc(O)c3c(=O)c2O)cc1O [TAMARIXETIN] | 4600
O=c1c(O)c(-c2ccc(O)c(O)c2)oc2cc(O)ccc12 [FISETIN] | 3700
COc1cc2oc(-c3ccc(O)cc3)cc(=O)c2cc1CC=C(C)C [BAVACHININ] | 3200
O=c1cc(-c2ccccc2)oc2cc(O)cc(O)c12 [CHRYSIN] | 2400
COc1cc(-c2oc3cc(O)cc(O)c3c(=O)c2O)cc(OC)c1O [SYRINGETIN] | 2100
COc1cc(-c2oc3cc(O)cc(O)c3c(=O)c2O[C@@H]2O[C@H](CO)[C@@H](O)[C@H](O)[C@H]2O)ccc1O | 3800
COc1ccc(-c2oc3cc(O)cc(O)c3c(=O)c2O)cc1 [KAEMPFERIDE] | 5700
O=C(/C=C/c1ccc(O)cc1)OC[C@H]1O[C@@H](Oc2c(-c3ccc(O)cc3)oc3cc(O)cc(O)c3c2=O)[C@H](O)[C@@H](O)[C@@H]1O [TILIROSIDE] | 5200
O=c1cc(-c2ccc(O)c(-c3c(O)cc(O)c4c(=O)cc(-c5ccc(O)cc5)oc34)c2)oc2cc(O)cc(O)c12 [AMENTOFLAVONE] | 3000
COc1ccc(-c2cc(=O)c3c(OC)c(OC)c(OC)cc3o2)cc1OC [SINENSETIN] | 10000
O=c1cc(-c2ccc(O)cc2)oc2cc(O)cc(O)c12 [APIGENIN] | 1200
O=c1cc(-c2ccc(Oc3c(O)cc4oc(-c5ccc(O)cc5)cc(=O)c4c3O)cc2)oc2cc(O)cc(O)c12 [HINOKIFLAVONE] | 48
COc1cc(-c2oc3cc(O)cc(O)c3c(=O)c2O)ccc1O [ISORHAMNETIN] | 3800
COc1cc(-c2oc3cc(O)ccc3c(=O)c2O)ccc1O [GERALDOL] | 2300
COc1cc(-c2cc(=O)c3c(O)cc(O)cc3o2)ccc1O [CHRYSOERIOL] | 2600
O=c1cc(-c2ccc(O)c(O[C@@H]3O[C@H](CO)[C@@H](O)[C@H](O)[C@H]3O)c2)oc2cc(O[C@@H]3O[C@H](CO)[C@@H](O)[C@H](O)[C@H]3O)cc(O)c12 [LUTEOLIN-3',7-DIGLUCOSIDE] | 1550

Each compound was assayed on Monocyte (assay: Inhibition of procoagulant activity in monocyte from human blood assessed as counteraction of endotoxin-induced tissue factor expression after 18 hrs).
Type: functional, cell-based

SMILES | IC50 [nM]
O=c1cc(-c2ccc(Oc3c(O)cc4oc(-c5ccc(O)cc5)cc(=O)c4c3O)cc2)oc2cc(O)cc(O)c12 [HINOKIFLAVONE] | 18
